# Reference: patent US6867198B2, “Agents and methods for the treatment of proliferative diseases” (Eli Lilly and Company, priority 1999, dated 2005)
# Experiments:
# cyclin D1-cdk4 [1] = biological target: T1, cyclin D1-cdk4 (Homo sapiens, UniProt P11802); assay: Assay of Cyclin D1-cdk4 Kinase Activity with the ING Peptide as Substrate; assay type: biochemical; conditions: ING peptide 200 uM as substrate, 300 uM ATP, 60 minutes at room temperature
# Protocol: Assay of Cyclin D1-cdk4 Kinase Activity with the ING Peptide as Substrate
# The cyclin D1-cdk4 kinase activity of a compound was assayed by preparing a 100 ul reaction at the following concentrations: 35 mM Hepes pH 7.0, 10 mM MgCl2, 300 uM ATP, 200 uM ING peptide, 1.0 uCi of γ-^33P-ATP, 4.34 ug of cyclin D-cdk4 enzyme, 4% DMSO, and various concentrations of inhibitor. The reaction was incubated at room temperature (about 74° F.) for 60 minutes, and then terminated by the addition of 100 ul of 10% phosphoric acid. Next, the reaction was filtered through a Millipore Multiscreen-PH Plate—Catalog number MAPH NOB 10, and the plate was washed 2 times with 320 ul each of 0.5% phosphoric acid, followed by the addition of 100 ul of scintillation fluid and quantitation on a Packard Instruments, Top Count, scintillation counter.
# [2] = tested on: HCT-116 or NCI H460 cells; assay: Cell Growth Inhibition Assay (MTT); assay type: cell-based; conditions: 72 h of drug exposure
# Protocol: Cell Growth Inhibition Assay
# The MTT assay was used to measure growth inhibitory activity (Schultz, R. M., et. al. Oncology Res. 5, 223-228, 1993). […] Basically, 1000 HCT-116 or NCI H460 cells were added per well to 96-well flat-bottom plates in 100-ul RPMI 1640 medium containing 10% dialyzed fetal bovine serum. The plates were incubated for 24 h prior to addition of test compounds. A stock solution (10 mM) was prepared in DMSO and serially diluted in medium. Compound dilutions were added to triplicate wells, and the plates were incubated for 72 hours. […].
# [3] = tested on: HCT-116 and NCI H460 cell lines; assay: Cell Cycle Analysis Using Flow Cytometry; assay type: cell-based; conditions: compound at 1×IC50 and 3×IC50, 24 hours, DNA histogram analysis
# Protocol: Cell Cycle Analysis Using Flow Cytometry
# The HCT-116 and NCI H460 cell lines were seeded in 75 cm^2 flasks at 5×10^5 cells/25 ml RPMI 1640 medium containing 10% dialyzed fetal bovine serum. They were incubated for 24 hours. Compound is then added at 1×IC50 and 3×IC50 (determined from above section “growth inhibition studies”) and incubated for an additional 24 hours. The cells were subsequently harvested and the protocol (Robinson, J. P. and Darzynkiewicz, Z. Current Protocols in Cytometry. 1997) for staining was followed. DNA histogram analysis was performed using ModFit LT (Verity House).
# [4] = tested on: Ser-780 pRb phosphorylation in HCT116 cells; assay: Inhibition of Rb Phosphorylation Assay; assay type: cell-based, Human; conditions: compound at 1×, 2× and 3×IC50, 24 hours, immunoblot
# Protocol: Inhibition of Rb Phosphorylation Assay
# Human HCT116 colon carcinoma cell line was purchased from American Tissue Culture Collection (Rockville, Md.) and maintained as monolayer in RPMI-1640 with L-Glutamine and 25 mM HEPES supplemented with 10% fetal bovine serum in a 37° C. incubator with a 10% CO2 atmosphere. The detection of mycoplasm in cultured cells was performed using Mycoplasma Rapid Detection System (TaKaRa Shuzo Co. Ltd., Shiga, Japan) every 2-3 months and the cells were found consistently negative throughout these experiments. The Rb phosphorylation assay was done be plating 4×10^5 cells/well in 6-well plates. […] At the end of the incubation period the mediumj was removed and the cells were washed twice with cold PBS containing 1 mM sodium orthovanadate (Na3VO4). […] Protein concentration was determined by the Bio-Rad DC protein assay (Bio-Rad, Hercules, Calif.). […] Proteins were detected by capturing image of the membrane using Quantity One Software on a Fluor-S multi-Imager (Bio-Rad, Hercules, Calif.) in a linear range. Specific bands were quantified using Quantity One Software. […] Results are expressed as a percentage inhibition of Ser-780 pRb phosphorylation in drug treated cells versus control DMSO treated cells.
# protein kinase C = conditions: cited from earlier work
# protein kinase A = conditions: cited from earlier work
# cyclin D1-cdk4 [5] = biological target: T1, cyclin D1-cdk4; assay: Assay of Cyclin D1-cdk4 Kinase Activity with the Rb21 Protein as Substrate; assay type: biochemical; conditions: Rb21 protein 5 ug as substrate, 30 uM ATP, 60 minutes at room temperature
# Protocol: Assay of Cyclin D1-cdk4 Kinase Activity with the Rb21 Protein as Substrate
# The cyclin D1-cdk4 kinase activity of a compound was assayed by preparing a 100 ul reaction at the following concentrations: 20 mM Hepes pH 7.0, 10 mM MgCl2, 30 uM ATP, 5 ug of Rb21 protein (Santa Cruz Biotech, Catalog #sc-4112), 1.0 uCi of γ-^33P-ATP, 1.09 ug of cyclin D-cdk4 enzyme, 4% DMSO, and various concentrations of inhibitor. The reaction was incubated at room temperature (about 74° F.) for 60 minutes, and then terminated by the addition of 100 ul of 25% trichloroacetic acid. Next, the reaction was filtered through a Millipore Multiscreen-FC Plate—Catalog number MAFC NOB 10, and the plate was washed 2 times with 320 ul each of 10% trichloroacetic acid, followed by the addition of 100 ul of scintillation fluid and quantitation on a Packard Instruments, Top Count, scintillation counter.
# T1 sequence (P11802 whole entry): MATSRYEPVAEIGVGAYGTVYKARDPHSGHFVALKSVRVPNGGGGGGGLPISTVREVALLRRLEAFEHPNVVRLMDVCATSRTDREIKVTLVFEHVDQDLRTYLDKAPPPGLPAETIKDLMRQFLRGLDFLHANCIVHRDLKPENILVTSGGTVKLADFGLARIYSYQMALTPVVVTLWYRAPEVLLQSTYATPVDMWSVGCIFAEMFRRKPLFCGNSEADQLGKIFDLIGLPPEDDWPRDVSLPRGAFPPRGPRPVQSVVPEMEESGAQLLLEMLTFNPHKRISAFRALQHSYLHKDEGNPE
# T1 sequence (P24385 whole entry partner): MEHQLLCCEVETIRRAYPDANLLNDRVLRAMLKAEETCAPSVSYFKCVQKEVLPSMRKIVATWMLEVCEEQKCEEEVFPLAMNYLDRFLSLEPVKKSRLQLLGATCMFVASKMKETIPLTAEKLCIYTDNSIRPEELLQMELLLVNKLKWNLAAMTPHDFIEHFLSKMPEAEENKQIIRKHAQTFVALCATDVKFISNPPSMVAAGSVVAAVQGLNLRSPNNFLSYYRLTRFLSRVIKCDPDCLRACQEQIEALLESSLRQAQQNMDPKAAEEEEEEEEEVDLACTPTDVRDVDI
SMILES,IC50 (cyclin D1-cdk4 [1]),IC50 (cyclin D1-cdk4 [5]),also measured
O=C1NC(=O)c2c1c1c3ccccc3[nH]c1c1c2c2cccc3c2n1C(CO)CC3 (stereo not drawn),78.7 nM,,
O=C1NC(=O)C(c2cn3c4c(cccc24)CCC3CO)=C1c1c[nH]c2ccccc12 (stereo not drawn),151 nM,,
CC1(C)CCn2cc(C3=C(c4c[nH]c5ccccc45)C(=O)NC3=O)c3cc(F)cc1c32,1560 nM,,
CC1(C)Cc2cccc3c(C4=C(c5c[nH]c6cc(CN)ccc56)C(=O)NC4=O)cn(c23)C1,793 nM,,
CN1Cc2cccc3c(C4=C(c5c[nH]c6ccccc56)C(=O)NC4=O)cn(c23)C1,455 nM,,
"O=C1NC(=O)c2c1c1c3ccccc3[nH]c1c1c2c2cccc3c2n1CCC3 [Example 52, 11H, 12H, 14H-pyrrolo[3,4-c]quinolino[8′,8a′,1′:3,2,1]-pyrrolo[2,3-a]carbazole-5,7-dione]",,,cell growth inhibition [2]: inhibit cell growth; cell cycle arrest [3]: arrest cells in the G1 phase of the cell cycle; inhibition of Ser-780 pRb phosphorylation [4]: inhibit Rb (retinoblastoma protein) phosphorylation
CN1CC[C@H](c2c(O)cc(O)c3c(=O)cc(-c4ccccc4Cl)oc23)[C@H](O)C1 [Flavopiridol],,,concentration inhibiting protein kinase C (protein kinase C): ≥ 10 μM/L; concentration inhibiting protein kinase A (protein kinase A): ≥ 10 μM/L
CC(C)(C)OC[C@H]1Cn2c3c(cccc3c3c4c(c5c6ccccc6[nH]c5c32)C(=O)NC4=O)CN1 [drawing 213],116 nM,,
CC1(C)CCn2c3c1cc(F)cc3c1c3c(c4c5ccccc5[nH]c4c12)C(=O)NC3=O [drawing 218],466 nM,,
CC1(C)Cc2cccc3c4c5c(c6c7ccc(CN)cc7[nH]c6c4n(c23)C1)C(=O)NC5=O [drawing 219],173 nM,,
O=C1NC(=O)c2c1c1c3ccc(CN4CCCC4)cc3[nH]c1c1c2c2cccc3c2n1CCC3 [drawing 220],51.3 nM,,
O=C1NC(=O)C(c2cn3c4c(cccc24)CCC3)=C1c1c[nH]c2ccccc12 [drawing 222],786 nM,,
O=C1NC(=O)C(c2cn3c4c(cccc24)CC(CO)C3)=C1c1c[nH]c2ccccc12 (stereo not drawn) [drawing 223],367 nM,,
CC(C)(C)OC[C@H]1Cn2c3c(cccc3c3c4c(c5c6ccccc6[nH]c5c32)C(=O)NC4=O)CN1 [drawing 229],,66.6 nM,
CC1(C)CCn2c3c1cc(F)cc3c1c3c(c4c5ccccc5[nH]c4c12)C(=O)NC3=O [drawing 234],,202 nM,
CC1(C)Cc2cccc3c4c5c(c6c7ccc(CN)cc7[nH]c6c4n(c23)C1)C(=O)NC5=O [drawing 235],,30.1 nM,
O=C1NC(=O)c2c1c1c3ccc(CN4CCCC4)cc3[nH]c1c1c2c2cccc3c2n1CCC3 [drawing 236],,11.1 nM,
O=C1NC(=O)C(c2cn3c4c(cccc24)CCC3)=C1c1c[nH]c2ccccc12 [drawing 238],,709 nM,
O=C1NC(=O)C(c2cn3c4c(cccc24)CC(CO)C3)=C1c1c[nH]c2ccccc12 (stereo not drawn) [drawing 239],,811 nM,

# Further lines, with some results ahead:
IC50 (cyclin D1-cdk4 [1]),IC50 (cyclin D1-cdk4 [5]),SMILES,also measured
127 nM,,O=C1NC(=O)c2c1c1c3ccccc3[nH]c1c1c2c2cccc3c2n1CC(CO)C3 (stereo not drawn),
64.5 nM,,O=C1NC(=O)c2c1c1c3ccccc3[nH]c1c1c2c2cccc3c2n1CCC3CO (stereo not drawn),
105 nM,,O=C1NC(=O)c2c1c1c3ccccc3[nH]c1c1c2c2cccc3c2n1CCC3 [drawing 212],
269 nM,,CC1Cn2c3c(cccc3c3c4c(c5c6ccccc6[nH]c5c32)C(=O)NC4=O)CN1C(=O)[C@H](C)N (stereo partly drawn) [drawing 217],
36.8 nM,,CN1Cc2cccc3c4c5c(c6c7ccccc7[nH]c6c4n(c23)C1)C(=O)NC5=O [drawing 221],
,65 nM,O=C1NC(=O)c2c1c1c3ccccc3[nH]c1c1c2c2cccc3c2n1CCC3 [drawing 228],
,180 nM,CC1Cn2c3c(cccc3c3c4c(c5c6ccccc6[nH]c5c32)C(=O)NC4=O)CN1C(=O)[C@H](C)N (stereo partly drawn) [drawing 233],
,15.5 nM,CN1Cc2cccc3c4c5c(c6c7ccccc7[nH]c6c4n(c23)C1)C(=O)NC5=O [drawing 237],
